Where a name gives a salt, the structure may show the parent alone.
Assay: Final product mixed with Deionized Water at room temperature
Type: physicochemical
Settings: 0.0130 g of final product mixed with 1.287 g of Deionized Water at room temperature
Excerpt: Vacuum filtered solution through Grade 4 filter paper to obtain a clear, colorless solution. […] The solution was concentrated using a rotary evaporator until mixture began to foam, then solution was transferred to a glass crystallizing dish and placed in a vacuum oven at room temperature under a partial vacuum of 3 inches of Hg internal oven pressure.

| Compound | appearance of mixture with Deionized Water (solubility) |
| --- | --- |
| O=C(NCc1ccccc1)[C@H](O)[C@@H](O)[C@H](O)[C@H](O)COS(=O)(=O)O [Example 7, Sodium (2R,3R,4S,5R)-6-(benzylamino)-2,3,4,5-tetrahydroxy-6-oxohexyl Sulfate] | completely clear, colorless solution that foamed when shaken |
| CCCCCCCCCCCCCCCCNC(=O)[C@H](O)[C@@H](O)[C@H](O)[C@H](O)COS(=O)(=O)O [Example 3, Sodium (2R,3R,4S,5R)-6-(hexadecylamino)-2,3,4,5-tetrahydroxy-6-oxohexyl sulfate] | completely clear, colorless solution that foamed when shaken |
| CCCCCCCCCCCCNC(=O)[C@H](O)[C@@H](O)[C@H](O)[C@H](O)COS(=O)(=O)O [Example 1, Sodium (2R,3R,4S,5R)-6-(dodecylamino)-2,3,4,5-tetrahydroxy-6-oxohexyl sulfate] | completely clear, colorless solution that foamed when shaken |
| CCCCCCCCCCCCCCNC(=O)[C@H](O)[C@@H](O)[C@H](O)[C@H](O)COS(=O)(=O)O [Example 2, Sodium (2R,3R,4S,5R)-6-(tetradecylamino)-2,3,4,5-tetrahydroxy-6-oxohexyl sulfate] | completely clear, colorless solution that foamed when shaken |
| Sodium (2R,3R,4S,5R)-6-((2-1H-indol-2-yl)ethyl) amino)-2,3,4,5-tetrahydroxy-6-Oxohexyl Sulfate [Example 8] | completely clear, colorless solution that foamed when shaken |
| CCCCCCCC/C=C\CCCCCCCCNC(=O)[C@H](O)[C@@H](O)[C@H](O)[C@H](O)COS(=O)(=O)O [Example 4, Sodium (2R,3R,4S,5R)-2,3,4,5-tetrahydroxy-6-(((Z)-octadec-9-en-1-yl)amino)-6-oxohexyl sulfate] | completely clear, colorless solution that foamed when shaken |
